Calls of active or inactive are those of the source. The rule behind the calls is not given here. Some results are limits rather than exact numbers.

The subject of data set [1] is LoVo. Put plainly: Antitumor activity against human LoVo cells assessed as inhibition of cell proliferation incubated for 72 hrs by MTT assay. The class given is functional, cell-based.
The subject of data set [2] is RKO. Nature of the data set: Antitumor activity against human RKO cells assessed as inhibition of cell proliferation incubated for 72 hrs by MTT assay. Type of data set: functional, cell-based. A general note: Tetrazolium assays rely on reduction of a dye to a coloured formazan, in cell work by metabolically active cells.
For data set [3], the system named is HT-29. Put plainly: Antitumor activity against human HT-29 cells assessed as inhibition of cell proliferation incubated for 72 hrs by MTT assay. The class given is functional, cell-based. The conditions noted are these: HT-29, 72 h.
Data set [4] relates to HT-29. Nature of the data set: Antitumor activity against human HT-29 cells xenografted in BALB/c mouse assessed as inhibition of tumor growth at 30 mg/kg, ip bid and measured after 14 days by vernier caliper method. Type of data set: functional. The note with it: HT-29, 336 h, time 14 day, read-out: TGI.
Data set [5] has as its target T1, DNA topoisomerase 1 (Homo sapiens) (UniProt P11387).
T1 sequence (whole entry): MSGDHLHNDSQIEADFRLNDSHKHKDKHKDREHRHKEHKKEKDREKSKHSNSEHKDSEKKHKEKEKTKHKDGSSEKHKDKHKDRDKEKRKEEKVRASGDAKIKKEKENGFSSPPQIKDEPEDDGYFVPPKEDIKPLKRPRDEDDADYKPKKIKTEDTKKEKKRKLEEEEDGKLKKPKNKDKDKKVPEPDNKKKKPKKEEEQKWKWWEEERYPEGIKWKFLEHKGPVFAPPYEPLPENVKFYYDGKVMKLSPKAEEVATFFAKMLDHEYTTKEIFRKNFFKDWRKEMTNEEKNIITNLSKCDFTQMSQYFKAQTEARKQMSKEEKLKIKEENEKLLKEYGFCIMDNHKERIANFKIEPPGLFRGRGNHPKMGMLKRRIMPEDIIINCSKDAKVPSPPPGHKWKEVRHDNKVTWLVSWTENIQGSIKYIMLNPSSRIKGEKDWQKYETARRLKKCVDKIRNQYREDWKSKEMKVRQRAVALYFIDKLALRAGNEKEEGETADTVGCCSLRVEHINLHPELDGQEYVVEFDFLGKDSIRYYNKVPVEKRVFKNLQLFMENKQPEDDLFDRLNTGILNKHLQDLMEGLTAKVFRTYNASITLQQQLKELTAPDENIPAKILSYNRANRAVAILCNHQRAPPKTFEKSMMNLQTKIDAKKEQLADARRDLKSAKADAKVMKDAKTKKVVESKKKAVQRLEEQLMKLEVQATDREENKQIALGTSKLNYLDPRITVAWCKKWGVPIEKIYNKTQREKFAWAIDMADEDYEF
Put plainly: Inhibition of topoisomerase 1 (unknown origin) assessed as relaxation of supercoiled plasmid pBR322 DNA at 10 uM incubated for 45 mins by ethidium bromide staining based agarose gel electrophoresis.

The test system of data set [6] is SW480. Nature of the data set: Antitumor activity against human SW480 cells assessed as inhibition of cell proliferation incubated for 72 hrs by MTT assay. Type of data set: functional, cell-based. The conditions noted are these: SW480, 72 h.
Data set [7] relates to HCT-116. Put plainly: Antitumor activity against human HCT-116 cells assessed as inhibition of cell proliferation incubated for 72 hrs by MTT assay. Type of data set: functional, cell-based. The conditions noted are these: HCT-116, 72 h.
A short description of data set [8]: Water solubility of compound by HPLC analysis. The class given is physicochemical.
For data set [9], the target named is Prostaglandin G/H synthase 2 (Homo sapiens) (UniProt P35354). Nature of the data set: Inhibition of COX-2 (unknown origin) at 30 uM.
Sequence of Prostaglandin G/H synthase 2 (Homo sapiens) (P35354 whole entry, looked up): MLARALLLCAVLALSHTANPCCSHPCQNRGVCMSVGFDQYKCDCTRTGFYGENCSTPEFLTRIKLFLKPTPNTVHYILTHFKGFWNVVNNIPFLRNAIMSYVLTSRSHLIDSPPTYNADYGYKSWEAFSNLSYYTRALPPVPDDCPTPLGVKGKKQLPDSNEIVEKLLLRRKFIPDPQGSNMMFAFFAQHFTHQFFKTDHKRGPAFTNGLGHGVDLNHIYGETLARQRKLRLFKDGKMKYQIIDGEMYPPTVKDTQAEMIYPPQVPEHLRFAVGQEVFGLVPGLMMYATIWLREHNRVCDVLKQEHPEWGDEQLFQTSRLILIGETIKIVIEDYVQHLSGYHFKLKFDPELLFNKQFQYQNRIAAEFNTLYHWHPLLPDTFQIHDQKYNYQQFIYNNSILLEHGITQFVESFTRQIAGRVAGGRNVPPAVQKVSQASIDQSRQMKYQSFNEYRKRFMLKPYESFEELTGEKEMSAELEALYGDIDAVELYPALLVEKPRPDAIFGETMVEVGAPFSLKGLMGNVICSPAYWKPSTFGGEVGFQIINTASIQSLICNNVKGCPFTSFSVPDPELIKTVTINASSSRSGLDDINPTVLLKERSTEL
For data set [10], the system named is HT-29. Put plainly: Antitumor activity against human HT-29 cells xenografted in BALB/c mouse assessed as inhibition of tumor microvessel density by measuring CD31-index at 30 mg/kg, ip bid for 14 days by immunohistochemical analysis. The note with it: time 14 day. The class given is functional.
For data set [11], the system named is HT-29. Nature of the data set: Antitumor activity against human HT-29 cells xenografted in BALB/c mouse assessed as reduction of tumor weight at 30 mg/kg, ip bid and measured after 14 days. The class given is functional, organism-based. The note with it: time 14.0 day.

As for `Cc1c(Cl)cccc1Nc1ccccc1C(=O)Nc1ccc(OCCNC(=O)OC(C)(C)C)cc1`, the 50% inhibitory concentration (IC50) was 28.9 µM in [1]; 0.75 µM in [2]; 1.88 µM in data set [3]; more than 30 µM in data set [6]; more than 30 µM in [7]. Also, in [4], the inhibition in vivo at 30 mg/kg stood at 37.9%. Further, the inhibition turned out to be 18.2% in data set [5] and 28% in [9]. For the same molecule, the solubility in [8] was less than 1 µg/mL. The Inhibition_index in [10] is reported as 11.67. Also, the result in [11] was Active.

As usually defined, the IC50 is the concentration at which inhibition is half-maximal. One may read the inhibition as the share of the control response that was lost under treatment. As usually defined, the solubility is the dissolved amount per volume that the medium holds. A higher solubility goes with a readily soluble substance.

The record behind these values is ChEMBL document CHEMBL5113460, “Discovery of dual inhibitors of topoisomerase I and Cyclooxygenase-2 for colon cancer therapy” (Eur J Med Chem, 2022).
